These results are taken from patent publication US20240287093A1, “HIGH ACTIVITY STING PROTEIN AGONIST” (ADLAI NORTYE BIOPHARMA CO., LTD., priority 2018, published 2024).

What all share (type): cell-based
In one assay the target is T1, STING variants (WT) (Homo sapiens, UniProt Q86WV6).
T1 construct: host or cells: HEK-Blue ISG KO-STING cells (Invivogen, hkb-kostg)
The assay is described as follows: SEAP reporter assay in HEK-Blue ISG KO-STING cells transfected with STING WT variant (Method 1). As to conditions: 24 h. An excerpt:
(§1) Example I: STING Variants (WT & HAQ) Activation by Compounds in HEK-Blue™ ISG KO-STING Cells (Method 1)
(§2) Activation of STING can be determined using a SEAP reporter assay in HEK-Blue™ ISG KO-STING cells (Invivogen, cat #hkb-kostg) transfected with plasmids expressing STING variants (WT & HAQ) (referred to WO2017/175147A1). STING variants (WT & HAQ) vector were constructed based on STING-232H vector (Origene, RC208418). GFP vector (VT2069) was bought from Youbio. The detailed protocol as follows: HEK-Blue™ ISG KO-STING cells were harvest and seeding into 96 well plate, the final cell number was 0.8×10^5 cells/well. Transfections were prepared using Lipofectamine 2000 (Invitrogen, Cat #11668-027) following the manufacturer's instructions (Lipo2000:DNA=1:10), 20 ul of transfection suspension containing 1 ng STING vector was added to cell culture plate and incubated at 37° C., 5% CO2 for 24 h. After 24 hours incubation, compounds were added at proper concentration, and the final DMSO concentration was 0.5%. After 24 h incubation, the supernatant was collected to detect SEAP signal using Great EscAPe SEAP chemiluminescence KIT (Clontech, cat #631738) and cells were collected to detect cell viability using CellTiter-Glo Luminescent Cell Viability Assay (Promega, cat #G7573) following the manufacturer's instructions. The data were described by the ratio of the stimulating signal of compounds to 0.5% DMSO.
(In general: A reporter such as luciferase makes a cellular process visible.)

For another assay, the target named is T2, STING variants (HAQ) (Homo sapiens, UniProt Q86WV6, G230A/R293Q/R71H).
T2 construct: host or cells: HEK-Blue ISG KO-STING cells (Invivogen, hkb-kostg)
The assay is described as follows: SEAP reporter assay in HEK-Blue ISG KO-STING cells transfected with STING HAQ variant (Method 1). As to conditions: 24 h.
Description: as §1, §2

The target in another assay is T3, STING (Homo sapiens, UniProt Q86WV6, G230A/H232R/R293Q/R71H).
T3 construct: THP1 was purchased from National Collection of Authenticated Cell Cultures (Cat #TCHu 57); host or cells: THP1
The assay is described as follows: IFNβ release from THP1 by STING activation (hIFNβ ELISA). As to conditions: THP1 cells, 24 h, IFN-β in supernatant; inactive = IFNβ not detected at the maximum concentration of compounds. The protocol: Example III: Compound Stimulate THP1 to Release IFNβ by STING Activation
In this assay, activation of STING by compounds was evaluated by detecting their ability to stimulate the secretion of IFN-β (interferon-beta) from THP1. THP1 was purchased from National Collection of Authenticated Cell Cultures (Cat #TCHu 57). The top dose of compounds was setted according to their solubility. First, Compounds were 3 times diluted with medium, 8-dose points in total. The final DMSO concentration was 0.2%. THP1 during the logarithmic phase was resuspended to 2×10^6 cells/ml in assay medium. The THP1-cell suspension was dispensed into a 96-well U bottom plate containing 50 ul of compound diluted in medium. After 24 h incubation at 37° C., 5% CO2, the supernatant was collected. The concentration of IFN-β in the supernatant was measured using a human IFNβ ELISA KIT (R&D, DY814-05). The data was fitted with GraphPad Prism or XLfit to calculate EC50 values.
For orientation: ELISA stands for enzyme-linked immunosorbent assay.

Where [1] appears, read: compound concentration 15.65 μM.
The mark [2] stands for this setting: compound concentration 169.6 μM.

Structures are written as SMILES.

T2 sequence (Q86WV6 whole entry R71H/G230A/R293Q): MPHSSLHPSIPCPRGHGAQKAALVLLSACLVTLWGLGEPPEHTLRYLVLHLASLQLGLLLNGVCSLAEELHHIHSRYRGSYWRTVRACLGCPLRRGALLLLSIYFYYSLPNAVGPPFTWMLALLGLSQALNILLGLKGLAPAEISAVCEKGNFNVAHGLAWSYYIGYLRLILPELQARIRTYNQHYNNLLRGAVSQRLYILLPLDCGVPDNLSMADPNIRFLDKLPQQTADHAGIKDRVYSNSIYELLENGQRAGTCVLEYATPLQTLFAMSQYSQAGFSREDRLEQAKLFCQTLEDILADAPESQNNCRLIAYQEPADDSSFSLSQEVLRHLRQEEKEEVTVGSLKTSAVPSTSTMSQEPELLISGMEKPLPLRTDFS
T3 sequence (Q86WV6 whole entry R71H/G230A/H232R/R293Q): as the sequence (Q86WV6 whole entry R71H/G230A/R293Q) above, with H232R counted along it

For `CCn1nc(C)cc1C(=O)Nc1nc2cc(C(N)=O)cc3c2n1C(C)(CO)CO3` (stereo not drawn) [Example 3, 2-(1-Ethyl-3-methyl-1H-pyrazole-5-carboxamido)-3-(hydroxymethyl)-3-methyl-3,4-dihydro-5-oxa-1,2a-diazaacenaphthylene-7-carboxamide], the “Fold change related to DMSO control, WT” value at STING variants (WT) (compound concentration 125 μM) is reported as 1.79 fold. At STING variants (HAQ) (compound concentration 125 μM), the “Fold change related to DMSO control, HAQ” value came out at 3.54 fold.

`CCOC(=O)/C=C/C1(C)COc2cc(C(N)=O)cc3nc(NC(=O)c4cc(C)nn4CC)n1c23` (stereo not drawn) [Example 5, Ethyl (E)-3-(7-carbamoyl-2-(1-ethyl-3-methyl-1H-pyrazole-5-carboxamido)-3-methyl-3,4-dihydro-5-oxa-1,2a-diazaacenaphthylen-3-yl)acrylate]: the “Fold change related to DMSO control, WT” value at STING variants (WT) (setting [1]) is 1.52 fold. Besides, the “Fold change related to DMSO control, HAQ” value at STING variants (HAQ) (setting [1]) is on record as 1.20 fold.

For `CCn1nc(C)cc1C(=O)Nc1nc2cc(C(N)=O)cc3c2n1[C@@H](CCNC(=O)OC(C)(C)C)CO3` [Example 6, tert-Butyl (S)-(2-(7-carbamoyl-2-(1-ethyl-3-methyl-1H-pyrazole-5-carboxamido)-3,4-dihydro-5-oxa-1,2a-diazaacenaphthylen-3-yl)ethyl)carbamate], the “Fold change related to DMSO control, WT” value at STING variants (WT) (setting [2]) was 0.76 fold. The “Fold change related to DMSO control, HAQ” value at STING variants (HAQ) (setting [2]) was found to be 4.41 fold.

In the case of `CCn1nc(C)cc1C(=O)Nc1nc2cc(C(N)=O)cc3c2n1[C@@H](CCNC(=O)OCc1ccccc1)CO3` [Example 14, Benzyl (S)-(2-(7-carbamoyl-2-(1-ethyl-3-methyl-1H-pyrazole-5-carboxamido)-3,4-dihydro-5-oxa-1,2a-diazaacenaphthylen-3-yl)ethyl)carbamate], on STING variants (WT) (compound concentration 25 μM), the “Fold change related to DMSO control, WT” value is on record as 1.59 fold. Further, at STING variants (HAQ) (compound concentration 25 μM), the “Fold change related to DMSO control, HAQ” value was found to be 27.44 fold.

As to `CCn1nc(C)cc1C(=O)Nc1nc2cc(C(N)=O)cc3c2n1[C@@H](CCCCNC(=O)OCc1ccccc1)CO3` [Example 17, Benzyl (S)-(4-(7-carbamoyl-2-(1-ethyl-3-methyl-1H-pyrazole-5-carboxamido)-3,4-dihydro-5-oxa-1,2a-diazaacenaphthylen-3-yl)butyl)carbamate], at STING variants (WT) (compound concentration 25 μM), the “Fold change related to DMSO control, WT” value is 1.76 fold. For the same compound, on STING variants (HAQ) (compound concentration 25 μM), the “Fold change related to DMSO control, HAQ” value was 37.64 fold.

Regarding `CCn1nc(C)cc1C(=O)Nc1nc2cc(C(N)=O)cc3c2n1C(C)(C)CO3` [Example 21, 2-(1-Ethyl-3-methyl-1H-pyrazole-5-carboxamido)-3,3-dimethyl-3,4-dihydro-5-oxa-1,2a-diazaacenaphthylene-7-carboxamide], on STING variants (WT) (compound concentration 25 μM), the “Fold change related to DMSO control, WT” value came to 2.18 fold. Also, the “Fold change related to DMSO control, HAQ” value on STING variants (HAQ) (compound concentration 25 μM) is 8.87 fold.

For `CCn1nc(C)cc1C(=O)Nc1nc2cc(C(N)=O)cc3c2n1C(C)(CN(C)CCc1ccccc1)CO3` (stereo not drawn) [Example 29, 2-(1-Ethyl-3-methyl-1H-pyrazole-5-carboxamido)-3-methyl-3-((methyl(phenethyl)amino)methyl)-3,4-dihydro-5-oxa-1,2a-diazaacenaphthylene-7-carboxamide], the “Fold change related to DMSO control, WT” value at STING variants (WT) (compound concentration 25 μM) turned out to be 1.06 fold. In addition, the “Fold change related to DMSO control, HAQ” value on STING variants (HAQ) (compound concentration 25 μM) was 1.14 fold.

With `CCn1nc(C)cc1C(=O)Nc1nc2cc(C(N)=O)cc3c2n1[C@@H](COCc1ccccc1)CO3` [Example 30, (S)-3-((Benzyloxy)methyl)-2-(1-ethyl-3-methyl-1H-pyrazole-5-carboxamido)-3,4-dihydro-5-oxa-1,2a-diazaacenaphthylene-7-carboxamide], the “Fold change related to DMSO control, WT” value at STING variants (WT) (compound concentration 25 μM) is on record as 1.63 fold. Moreover, the “Fold change related to DMSO control, HAQ” value on STING variants (HAQ) (compound concentration 25 μM) was 35.09 fold.

For `CCn1nc(C)cc1C(=O)Nc1nc2cc(C(N)=O)cc3c2n1[C@@H](CCNC(=O)/C=C/c1ccc(C#N)cc1)CO3` [Example 37, (S,E)-3-(2-(3-(4-cyanophenyl)acrylamido)ethyl)-2-(1-ethyl-3-methyl-1H-pyrazole-5-carboxamido)-3,4-dihydro-5-oxa-1,2a-diazaacenaphthylene-7-carboxamide], the “Fold change related to DMSO control, WT” value at STING variants (WT) (compound concentration 3.11 μM) worked out at 1.07 fold. In addition, the “Fold change related to DMSO control, HAQ” value at STING variants (HAQ) (compound concentration 3.11 μM) amounted to 1.85 fold.

For the compound `CCn1nc(C)cc1C(=O)Nc1nc2cc(C(N)=O)cc3c2n1[C@@H](CCNC(=O)/C=C/c1cccc(F)c1)CO3` [Example 38, (S,E)-2-(1-ethyl-3-methyl-1H-pyrazole-5-carboxamido)-3-(2-(3-(3-fluorophenyl)acrylamido)ethyl)-3,4-dihydro-5-oxa-1,2a-diazaacenaphthylene-7-carboxamide], the “Fold change related to DMSO control, WT” value on STING variants (WT) (compound concentration 25 μM) came to 2.96 fold. Further, the “Fold change related to DMSO control, HAQ” value on STING variants (HAQ) (compound concentration 25 μM) was 22.76 fold.

For the compound `CCn1nc(C)cc1C(=O)Nc1nc2cc(C(N)=O)cc3c2n1[C@@H](CCNC(=O)/C=C/c1ccccc1OC)CO3` [Example 39, (S,E)-2-(1-ethyl-3-methyl-1H-pyrazole-5-carboxamido)-3-(2-(3-(2-methoxyphenyl)acrylamido)ethyl)-3,4-dihydro-5-oxa-1,2a-diazaacenaphthylene-7-carboxamide], at STING variants (WT) (compound concentration 25 μM), the “Fold change related to DMSO control, WT” value is reported as 2.78 fold. Besides, at STING variants (HAQ) (compound concentration 25 μM), the “Fold change related to DMSO control, HAQ” value stood at 25.85 fold.

Consider `CCn1nc(C)cc1C(=O)Nc1nc2cc(C(N)=O)cc3c2n1[C@@H](CCNC(=O)OCCc1ccccc1)CO3` [Example 42, Phenethyl (S)-(2-(7-carbamoyl-2-(1-ethyl-3-methyl-1H-pyrazole-5-carboxamido)-3,4-dihydro-5-oxa-1,2a-diazaacenaphthylen-3-yl)ethyl)carbamate], for which the “Fold change related to DMSO control, WT” value on STING variants (WT) (compound concentration 21.4 μM) came out at 1.10 fold. Also, on STING variants (HAQ) (compound concentration 21.4 μM), the “Fold change related to DMSO control, HAQ” value was found to be 10.52 fold.

At STING, `CCn1nc(C)cc1C(=O)Nc1nc2cc(C(N)=O)cc3c2n1CC(C)(C)CN3CCOC` [Example 73, 1-(1-ethyl-3-methyl-1H-pyrazole-5-carboxamido)-6-(2-methoxyethyl)-8,8-dimethyl-6,7,8,9-tetrahydro-2,6,9a-triazabenzo[cd]azulene-4-carboxamide] displayed a half-maximal effective concentration (EC50) of 6.8 µM.

`CCn1nc(C)cc1C(=O)Nc1nc2cc(C(N)=O)cc3c2n1CC(C)(C)CN3CCCOC` [Example 74, 1-(1-Ethyl-3-methyl-1H-pyrazole-5-carboxamido)-6-(3-methoxypropyl)-8,8-dimethyl-6,7,8,9-tetrahydro-2,6,9a-triazabenzo[cd]azulene-4-carboxamide] returned an EC50 at STING of 11.8 µM.

`CCn1nc(C)cc1C(=O)Nc1nc2cc(C(N)=O)cc3c2n1CC(C)(C)CN3CCOCc1ccccc1` [Example 75, 6-(2-(benzyloxy)ethyl)-1-(1-ethyl-3-methyl-1H-pyrazole-5-carboxamido)-8,8-dimethyl-6,7,8,9-tetrahydro-2,6,9a-triazabenzo[cd]azulene-4-carboxamide] gave an EC50 on STING of 7.7 µM.

`CCn1nc(C)cc1C(=O)Nc1nc2cc(C(N)=O)cc3c2n1CC(C)(C)CN3CCO` [Example 76, 1-(1-ethyl-3-methyl-1H-pyrazole-5-carboxamido)-6-(2-hydroxyethyl)-8,8-dimethyl-6,7,8,9-tetrahydro-2,6,9a-triazabenzo[cd]azulene-4-carboxamide]: on STING, the EC50 was 9.9 µM.

With `CCn1nc(C)cc1C(=O)Nc1nc2cc(C(N)=O)cc3c2n1CC1(CCC1)CO3` [Example 77, 1-(1-ethyl-3-methyl-1H-pyrazole-5-carboxamido)-7H,9H-6-oxa-2,9a-diazaspiro[benzo[cd]azulene-8,1′-cyclobutan]-1,2a,2a1(5a),4-tetraene-4-carboxamide], a half-maximal response on STING (EC50) required 20.8 µM.

For `CCn1nc(C)c(F)c1C(=O)Nc1nc2cc(C(N)=O)cc3c2n1CC1(CCC1)CO3` [Example 78, 1-(1-Ethyl-4-fluoro-3-methyl-1H-pyrazole-5-carboxamido)-7H,9H-6-oxa-2,9a-diazaspiro[benzo[cd]azulene-8,1′-cyclobutan]-1,2a,2a1(5a),4-tetraene-4-carboxamide], the EC50 on STING turned out to be 19 µM.

For orientation: EC50 means the concentration at which the effect is half-maximal. A low value points to a more potent agent.
